# “Also recorded” adds a separate entry of the source.
# Columns and labels:
# [1] = test system: purified secondary alcohol dehydrogenase; test: inhibition of purified yeast SADH; format: biochemical, Pichia sp. NRRL Y-11,328; settings: primary alcohols tested at 10^-3 M
# Protocol: Large scale cultures of Pichia sp. NRRL Y-11,328 were grown with aeration at 30° C. in a 14-liter New Brunswick f fermentor in a mineral salt medium containing methanol (0.4%, v/v) as the sole carbon source. The cells (200 g., wet weight) were suspended in […] sodium phosphate buffer, pH 7.0, containing 1 mM dithiothreitol (buffer A), and crude extracts were prepared as described previously. To the crude extracts, 18 ml. of protamine sulfate solution [2% solution in 0.1 M tris (hydroxymethyl) aminomethane (tris) base] was added dropwise with continuous stirring. After standing for 30 min., the extracts were centrifuged at 20,000× g. for 60 min. The supernatant solution was fractionated with solid ammonium sulfate. Extracts were brought to 50% of saturation with respect to ammonium sulfate by addition of 313 g. of the salt per liter of extract. Precipitated proteins was removed by centrifugation, and 137 g. of ammonium sulfate was added per liter of the supernatant liquid to bring it to 70% of saturation. Material precipitating between 50 and 70% of saturation was collected by centrifugation and dissolved in buffer A. This preparation was dialyzed overnight against buffer A, and the dialyzed material was applied to a DEAE-cellulose column (5×40 cm) that had been equilibrated with buffer A. The sample was washed with 200 ml. of buffer A and eluted with 2 liters of buffer A that contained NaCl in a linear gradient running from a concentration of 0 to 0.5 M. Fractions of 15 ml. were collected. Fractions containing secondary alcohol dehydrogenase activity were pooled and were termed DEAE-cellulose eluate. The DEAE-cellulose eluate was concentrated by ammonium sulfate fractionation.
# Secondary alcohol dehydrogenase activity was measured spectrophotometrically at 340 nm with a NAD^+ as an electron acceptor. The reaction mixture, in a total 3.0 ml., contained 50 mM phosphate buffer, pH 8.0, 5 μmoles NAD^+, crude extracts, and substrate. The reactions were started by addition of 100 μl of 0.1 M substrate and the rate of NAD^+ reduction was measured. Protein concentration was determined by the method of Lowry et al.
# Various primary alcohols not oxidized by secondary alcohol dehydrogenase were tested as potential inhibitors of enzyme activity.
# [2] = test system: cell-free particulate fractions of methane-grown methylotrophs; test: inhibitors and electron donors of n-alkane conversion to sec. alcohols by cell-free particulate fractions; format: biochemical
# Text: The conditions for preparing the cell suspensions or the cell-free particulate fractions from methane-grown methylotroph microorganisms is the same as described above.
# [3] = test system: cell suspensions of C1-utilizers; test: studies on production of 2-butanone from 2-butanol by cell suspensions of the strains tested; format: cell-based; settings: for inhibition of production of 2-butanone from 2-butanol by cell suspensions: strains tested
# Text: The following summarizes tests conducted on the optimal conditions for the production of methyl ketones from C3 -C6 sec. alcohols.
# The substrate specificity for the oxidation of C3 -C6 secondary alcohols by the strains of C1 -utilizers was studied.
# [4] = test system: purified secondary alcohol dehydrogenase (SADH); test: inhibition of purified SADH by metal-chelating agents, thioreagents, metals; format: biochemical, Pseudomonas sp. ATCC 21439; settings: for % inhibition of SADH activity: each inhibitor at a final concentration of 1 mM, measured spectrofluorometrically
# Protocol: Secondary alcohol dehydrogenase (SADH) from an obligate methanol utilizer, Pseudomonas sp. ATCC 21439 was purified as follows. […] 0.05 M sodium phosphate buffer, pH 7.0 with 0.5 mM dithiothretol (buffer A) and were disrupted sonically (5×1 min.). The crude extract was separated by centrifugation. The crude extract was heat-treated at 50° C. in a water bath for 10 minutes. The resulting precipitate was removed by centrifugation. To the supernatant solution, 25 ml of protamine sulfate solution (2% solution in 0.1 M Tris base) was added dropwise with continuous stirring. After standing for 30 minutes, the extract was centrifuged. The supernatant solution was fractionated with solid ammonium sulfate. […] This DEAE-cellulose eluate was concentrated by ammonium sulfate fractionation. Material precipitating between 30 and 50% ammonium sulfate saturation was collected by centrifugation and dialyzed overnight against A. This fraction was further washed and filtered through an Amicon unit with XM 50 membrane. The concentrated fraction (6 ml) inside the Amicon unit was applied to an Affi-Gel Blue column (0.8 cm×18 cm) which had been equilibrated with buffer A for affinity chromatography. The column was washed overnight with buffer A (0.18 ml./min.) and then was eluted with buffer A containing 5 mM NAD. Each 1 ml. fraction was collected.
# The purified secondary alcohol dehydrogenase enzyme (SADH) may be used directly for converting C3 -C6 secondary alcohols to the corresponding methyl ketones by the procedures described above; however, a source of NAD^+ must be added to the reaction medium. One can determine the NAD-linked secondary alcohol dehydrogenase activity with a fluorescence spectrophotometer (Perkin Elmer, Model MPF 44A) by following the formation of reduced NAD (Ex 340 nm, Em 460 nm). The assay system (3 ml.) will typically contain: sodium phosphate buffer pH 7.0, 150 μmol; NAD 1.0 μmol; a given amount of enzyme preparation; and 20 μmol secondary alcohol. The reaction is started by the addition of secondary alcohol. One unit of SADH enzyme activity represents the reduction of one nmole NAD per minute.
# The effect of metal-chelating agents and thioreagents on the activity of the purified SADH enzyme were studied. […] The possibility of ethanol or n-propanol as an inhibitor was studied.
# [5] = test system: cell-free extracts of strain ATCC 21439; test: stoichiometry of production of 2-butanone from 2-butanol by cell-free extracts (Table IX); format: biochemical, Pseudomonas sp. ATCC 21,439; settings: for NAD Consumed: fluorescence spectrophotometrically
# Protocol: The reaction mixtures 3 ml (1.0 mg protein) were incubated at 30°
# ^(a) Determined gas chromatographically.
# ^(b) Determined fluorescence spectrophotometrically.
# consumption of NAD was corrected.
# cell-free SADH system = test: cofactor requirement of the cell-free SADH systems; format: biochemical; settings: cell-free systems tested
# Protocol: To prepare the cell-free secondary alcohol dehydrogenase (SADH) system, the washed cells were disrupted with a Wave Energy Ultrasonic Oscillator, Model W201 (Wave Energy System, Inc., Newtown, Pa.) and centrifuged at 20,000×g. for 30 minutes. […] The enzyme activity was measured with a fluorescence spectrophotometer (Perkin Elmer, Model MPF 44A) by following the formation of reduced NAD (EX 340 nm, Em 460 nm). The formation of reduced NAD was also followed with an absorption spectrophotometer at 340 nm. The assay system (3 ml.) contained: potassium phosphate buffer pH 7.0; 150 μmol.; NAD 1 μmol.; a given amount of enzyme preparation; and secondary alcohol 10 μmol. The reaction was started by the addition of substrate. One unit of enzyme activity represents the reduction of one μmole NAD per minute. Protein concentrations were determined by the Lowry method (J. Biol. Chem., 193: 255-275 (1951)).
# [6] = test system: purified secondary alcohol dehydrogenase; test: substrate specificity, electron acceptor and stoichiometry of purified yeast SADH
# [7] = test system: Methylosinus trichosporium (OB3b, NRRL-B-11,196); test: n-alkanes to secondary alcohols by cell suspensions (Table XVI); format: cell-based; settings: Growth Substrate Methane
# Text: (§1) Both cell suspensions (particulate fraction) and cell-free particulate fraction of methane-grown methylotroph microorganisms are capable of catalyzing the conversion of C3 -C6 n-alkanes to the corresponding alcohols including secondary alcohols. The conditions for preparing the cell suspensions or the cell-free particulate fractions from methane-grown methylotroph microorganisms is the same as described above. The cell-free particulate fraction requires the presence of oxygen and NADH as an electron donor. […] Tables XVI and XVII show the conversion of C3 -C6 n-alkanes to the corresponding secondary alcohols using cell suspensions and cell-free particulate fractions, respectively, of methane-grown methylotroph microorganisms.
# (§2) ^(a) The product secondary alcohols were identified and estimated by […]
# [8] = test system: Methylococcus capsulatus (Texas, ATCC 19,069); test: as above; format: cell-based; settings: Growth Substrate Methane
# Text: as §1, §2
# [9] = test system: Methylobacterium sp. (CRL-26, NRRL-B-11,208); test: as above; format: cell-based; settings: Growth Substrate Methane
# Text: as §1, §2
# [10] = test system: Methylococcus capsulatus Texas (ATCC 19069); test: n-alkanes to methyl ketones by resting cell suspensions (Table I); format: cell-based; settings: cells grown on methane; 30° C.
# Protocol: (§3) The pH of the nutrient medium was adjusted to 7.0 by the addition of acid or base and 50 ml. samples of the nutrient medium were charged into a plurality of 300 ml. shaker flasks. […] The isolates had been maintained on methanol (0.4% V/V) agar plates or on agar plates under an atmosphere of methane and air having a 1:1 V/V gas ratio which had been transferred every two weeks. For growth on methanol, the medium was supplemented with 0.4% methanol. For growth on methane, the gaseous phase of the inoculated flasks was replaced with a gas mixture comprised of methane and air having a ratio of 1:1 on a V/V basis. The inoculated flasks were sealed air-tight and were incubated on a rotary shaker of orbital radius 2.5 cm. at 250 rpm and at 30° C. for two days until turbidity in the medium had developed. The cells were harvested by centrifugation at 10,000×g. at 4° C. for 30 minutes. The cell pellet was washed twice with a 0.05 M phosphate buffer at a pH of 7.0 (containing 0.02 M MgCl2). The washed cells were then suspended in a 0.05 M phosphate buffer at pH 7.0.
# (§4) A 0.5 ml. sample of each washed cell suspension (2 mg. cells) was put into 10 ml. vials at 4° C. which were sealed with a rubber cap. The gaseous phase of the vials was removed with vacuum and then was replaced with a gas mixture of the substrate reactant (i.e., alkane or secondary alcohol) and oxygen at a 1:1 V/V ratio. (In the case of a liquid substrate, i.e., secondary alcohol, 10 μl of the substrate was put in the 10 ml. vials). The vials were then incubated at 30° C. on a rotary shaker at 300 rpm. Samples of product (1-3 μl) were withdrawn periodically with a microsyringe and the products were analyzed by gas chromatography (ionization flame detector column).
# [11] = test system: Methylosinus trichosporium OB3b (NRRL B-11,196); test: as above; format: cell-based; settings: cells grown on methane; 30° C.
# Protocol: as §3, §4
# [12] = test system: Methylobacter capsulatus Y (NRRL B-11,201); test: as above; format: cell-based; settings: cells grown on methane; 30° C.
# Protocol: as §3, §4
# [13] = test system: Methylomonas methanica SI (NRRL B-11,199); test: as above; format: cell-based; settings: cells grown on methane; 30° C.
# Protocol: as §3, §4
# [14] = test system: Methylobacterium organophilum XX; test: as above; format: cell-based; settings: cells grown on methane; 30° C.
# Protocol: as §3, §4
# [15] = test system: Methylocystis parvus OBBP (NRRL B-11,198); test: as above; format: cell-based; settings: cells grown on methane; 30° C.
# Protocol: as §3, §4
smiles,measurement,setting,value
"c1cnc2c(c1)ccc1cccnc12 [1,10-phenanthroline]",inhibition of purified yeast secondary alcohol dehydrogenase activity,[1],strongly inhibited
same,inhibition of conversion of n-alkanes to sec. alcohols (words),[2],inhibited
same,inhibition of production of 2-butanone from 2-butanol by cell suspensions,[3],inhibited
same,% inhibition of SADH activity,[4],95%
CCC(C)=O [2-butanone],2-Butanone Produced,"[5]; Experiment 2: 20 min., gas chromatographically",520 nmol
same,further oxidation / degradation of 2-butanone by viable cell suspensions,[3]; 8 μmoles of 2-butanone added,Some enzymatic degradation; also recorded: slowly disappeared
same,inhibition of production of 2-butanone from 2-butanol by cell suspensions,[3],No product (2-butanone) inhibition was observed; also recorded: did not inhibit
same,inhibition of SADH activity,[4],inhibited
"N[C@@H](CCC(=O)N[C@@H](CS)C(=O)NCC(=O)O)C(=O)O [GSH, glutathione]",inhibition of purified yeast secondary alcohol dehydrogenase activity,[1],strongly inhibited
same,effectiveness as cofactor for oxidation of 2-butanol / C3-C6 secondary alcohols,cell-free SADH system,not effective
"NC(=O)c1ccc[n+]([C@@H]2O[C@H](COP(=O)([O-])OP(=O)(O)OC[C@H]3O[C@@H](n4cnc5c(N)ncnc54)[C@H](O)[C@@H]3O)[C@@H](O)[C@H]2O)c1 [NAD, Nicotinamide adenine dinucleotide, reference compound]",NAD Consumed,[5]; Experiment 1: 10 min.,270 nmol
same,NAD Consumed,[5]; Experiment 2: 20 min.,540 nmol
same,ability to act as electron acceptor/carrier for the purified enzyme,[6],required
same,effectiveness as cofactor for oxidation of 2-butanol / C3-C6 secondary alcohols,cell-free SADH system,required
O=S(=O)([O-])[O-].[Cu+2] [cupric sulfate],inhibition of purified yeast secondary alcohol dehydrogenase activity,[1],inhibited
c1c[nH]cn1 [imidiazole],inhibition of purified yeast secondary alcohol dehydrogenase activity,[1],strongly inhibited
N#C[S][Hg][S]C#N [mercuric thiocyanate],inhibition of purified yeast secondary alcohol dehydrogenase activity,[1],inhibited
"CCCCCC [n-Hexane, n-hexane]","Conversion Rate, n-alkane to corresponding secondary alcohol",[7],0.01 μmoles/hr/^5 mg. protein
same,"Conversion Rate, n-alkane to corresponding secondary alcohol",[8],0.01 μmoles/hr/^5 mg. protein
same,"Conversion Rate, n-alkane to corresponding secondary alcohol",[9],0.007 μmoles/hr/^5 mg. protein
same,"Conversion Rates, n-alkane to corresponding methyl ketone",[10],0.09 μmoles/hr/mg protein
same,"Conversion Rates, n-alkane to corresponding methyl ketone",[11],0.05 μmoles/hr/mg protein
same,"Conversion Rates, n-alkane to corresponding methyl ketone",[12],0.07 μmoles/hr/mg protein
same,"Conversion Rates, n-alkane to corresponding methyl ketone",[13],0.02 μmoles/hr/mg protein
same,"Conversion Rates, n-alkane to corresponding methyl ketone",[14],0.09 μmoles/hr/mg protein
same,"Conversion Rates, n-alkane to corresponding methyl ketone",[15],0.04 μmoles/hr/mg protein
"CCCCC [n-Pentane, n-pentane]","Conversion Rate, n-alkane to corresponding secondary alcohol",[7],0.06 μmoles/hr/^5 mg. protein
same,"Conversion Rate, n-alkane to corresponding secondary alcohol",[8],0.032 μmoles/hr/^5 mg. protein
same,"Conversion Rate, n-alkane to corresponding secondary alcohol",[9],0.01 μmoles/hr/^5 mg. protein
same,"Conversion Rates, n-alkane to corresponding methyl ketone",[10],0.42 μmoles/hr/mg protein
same,"Conversion Rates, n-alkane to corresponding methyl ketone",[11],0.72 μmoles/hr/mg protein
same,"Conversion Rates, n-alkane to corresponding methyl ketone",[12],0.63 μmoles/hr/mg protein
same,"Conversion Rates, n-alkane to corresponding methyl ketone",[13],0.28 μmoles/hr/mg protein
same,"Conversion Rates, n-alkane to corresponding methyl ketone",[14],0.58 μmoles/hr/mg protein
same,"Conversion Rates, n-alkane to corresponding methyl ketone",[15],0.51 μmoles/hr/mg protein
O=C(O)c1cc[c]([Hg+])cc1.[OH-] [p-hydroxymercuribenzoate],inhibition of purified yeast secondary alcohol dehydrogenase activity,[1],strongly inhibited
same,% inhibition of SADH activity,[4],100%
O=[N+]([O-])[O-].[Ag+] [silver nitrate],inhibition of purified yeast secondary alcohol dehydrogenase activity,[1],inhibited

# From US4250259A, “Microbiological production of ketones from C3 -C6 secondary alcohols” (priority 1979, dated 1981)
